The results in this text go back to patent US11278522B2, “Use of methadone metabolites for treatment of anxiety and depression” (Georgetown University, priority 2015, dated 2022).

In data set [1] the target is T1, human α3β4 nAChRs (Homo sapiens, UniProt P30926+P32297).
T1 construct: expressed in transfected cells
In words: 86Rb+ efflux assay, inhibition of nicotine-stimulated efflux, α3β4 nAChRs. The data set is classed as cell-based. Conditions: 86Rb+ efflux stimulated by 100 μM nicotine; HEK cells YXα3β4H1; mean ± standard error. As to the method: Stable cell lines and ^86Rb^+ efflux Assay. […] These cell lines were maintained in minimum essential medium (MEM) supplemented with 10% fetal bovine serum, 100 units/mL penicillin G, […] and selective antibiotics at 37° C. with 5% CO2 in a humidified incubator. Tissue culture medium and antibiotics were obtained from Invitrogen Corporation (Carlsbad, Calif.), unless otherwise stated. Fetal bovine serum was obtained from Gemini Bio-Products (Woodland, Calif.).
In brief, cells were plated into 24-well plates coated with poly-D-lysine. […] The cells were then incubated in growth medium (0.5 mL/well) containing ^86Rb^+ (2 μCi/mL) for 4 hour at 37° C. The loading mixture was then aspirated, and the cells were washed four times with 1 mL buffer (15 mM HEPES, 140 mM NaCl, 2 mM KCl, 1 mM MgSO4, 1.8 mM CaCl2), 11 mM Glucose, pH 7.4). One mL of buffer with or without compounds to be tested was then added to each well. After incubation for 2 min, the assay buffer was collected for measurements of ^86Rb^+ released from the cells. Cells were then lysed by adding 1 mL of 100 mM NaOH to each well, and the lysate was collected for determination of the amount of ^86Rb^+ that was in the cells at the end of the efflux assay. Radioactivity of assay samples and lysates was measured by liquid scintillation counting. Total loading (cpm) was calculated as the sum of the assay sample and the lysate of each well, and the amount of ^86Rb^+ efflux was expressed as a percentage of ^86Rb^+ loaded. Stimulated ^86Rb^+ efflux was defined as the difference between efflux in the presence and absence of nicotine. […] IC50 values were determined by nonlinear least-squares regression analyses (GraphPad. San Diego, Calif.).

For data set [2], the target named is T2, human α4β2 nAChRs (Homo sapiens, UniProt P17787+P43681).
T2 construct: expressed in transfected cells
T2 sequence (P43681 29-627 limits assumed): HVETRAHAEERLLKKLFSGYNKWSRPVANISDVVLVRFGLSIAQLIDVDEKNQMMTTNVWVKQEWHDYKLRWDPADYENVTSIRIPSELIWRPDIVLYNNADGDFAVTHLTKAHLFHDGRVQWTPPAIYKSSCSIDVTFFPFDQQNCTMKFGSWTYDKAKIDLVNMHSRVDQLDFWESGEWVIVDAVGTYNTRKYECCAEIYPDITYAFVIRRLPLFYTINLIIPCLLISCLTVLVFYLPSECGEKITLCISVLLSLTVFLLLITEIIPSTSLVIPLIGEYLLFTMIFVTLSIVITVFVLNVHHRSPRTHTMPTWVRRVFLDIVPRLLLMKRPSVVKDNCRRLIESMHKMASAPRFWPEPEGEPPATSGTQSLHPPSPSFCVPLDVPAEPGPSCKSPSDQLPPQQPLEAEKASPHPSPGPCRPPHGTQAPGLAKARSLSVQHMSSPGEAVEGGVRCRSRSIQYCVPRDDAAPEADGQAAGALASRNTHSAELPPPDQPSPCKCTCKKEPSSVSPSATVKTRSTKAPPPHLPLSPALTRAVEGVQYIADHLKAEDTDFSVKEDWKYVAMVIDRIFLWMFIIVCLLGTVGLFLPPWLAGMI
T2 sequence (P17787 26-502): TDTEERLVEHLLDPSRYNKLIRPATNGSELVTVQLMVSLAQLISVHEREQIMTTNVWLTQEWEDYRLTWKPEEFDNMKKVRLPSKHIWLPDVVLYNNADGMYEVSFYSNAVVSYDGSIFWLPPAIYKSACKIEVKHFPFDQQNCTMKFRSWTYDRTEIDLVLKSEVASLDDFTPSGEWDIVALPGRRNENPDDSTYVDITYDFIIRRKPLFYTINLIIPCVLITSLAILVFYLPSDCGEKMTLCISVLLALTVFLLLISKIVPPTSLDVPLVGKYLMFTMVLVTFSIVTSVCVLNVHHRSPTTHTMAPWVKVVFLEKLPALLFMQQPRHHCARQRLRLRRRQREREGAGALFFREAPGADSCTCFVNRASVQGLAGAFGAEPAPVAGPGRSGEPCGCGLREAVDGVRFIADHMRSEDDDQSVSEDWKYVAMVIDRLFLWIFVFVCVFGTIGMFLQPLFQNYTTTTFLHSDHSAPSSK
The data set is described as follows: 86Rb+ efflux assay, inhibition of nicotine-stimulated efflux, α4β2 nAChRs. Conditions: 86Rb+ efflux stimulated by 100 μM nicotine; HEK cells YXα4β2H1; mean ± standard error. It is filed as cell-based. As to the method: Stable cell lines and ^86Rb^+ efflux Assay. The cell lines expressing human α4β2 (YXα4β2H1) and α3β4 (YXα3β4H1) nAChRs were established recently (Xiao el al., 2012). These cell lines were maintained in minimum essential medium (MEM) supplemented with 10% fetal bovine serum, 100 units/mL penicillin G, […] streptomycin and selective antibiotics at 37° C. with 5% CO2 in a humidified incubator. Tissue culture medium and antibiotics were obtained from Invitrogen Corporation (Carlsbad, Calif.), unless otherwise stated. Fetal bovine serum was obtained from Gemini Bio-Products (Woodland, Calif.).
Functional properties of compounds at nAChRs expressed in the transfected cells were measured using ^86Rb^+ efflux assays as described previously (Xiao et al., 1998, 2001). In brief, cells were plated into 24-well plates coated with poly-D-lysine. The plated cells were grown at 37° C. for 18 to 24 hour to reach 85-95% confluence. The cells were then incubated in growth medium (0.5 mL/well) containing ^86Rb^+ (2 μCi/mL) for 4 hour at 37° C. The loading mixture was then aspirated, and the cells were washed four times with 1 mL buffer (15 mM HEPES, 140 mM NaCl, 2 mM KCl, 1 mM MgSO4, 1.8 mM CaCl2), 11 mM Glucose, pH 7.4). One mL of buffer with or without compounds to be tested was then added to each well. After incubation for 2 min, the assay buffer was collected for measurements of ^86Rb^+ released from the cells. Cells were then lysed by adding 1 mL of 100 mM NaOH to each well, and the lysate was collected for determination of the amount of ^86Rb^+ that was in the cells at the end of the efflux assay. Radioactivity of assay samples and lysates was measured by liquid scintillation counting. Total loading (cpm) was calculated as the sum of the assay sample and the lysate of each well, and the amount of ^86Rb^+ efflux was expressed as a percentage of ^86Rb^+ loaded. Stimulated ^86Rb^+ efflux was defined as the difference between efflux in the presence and absence of nicotine. […] IC50 values were determined by nonlinear least-squares regression analyses (GraphPad. San Diego, Calif.).

Data set [3] can be described thus: Marble burying (mice). The data set is classed as in vivo, mouse. Conditions: 10 mg/kg i.p., 15 min test, vehicle mean 11 of 20. On the procedure:
Marble Burying (Mice) After a 1 h period of acclimation to the testing room, the mice (n=6-10 per group) were injected i.p. with saline, EDDP, EMDP, or CDP at the doses indicated. Ten minutes later, the mice were placed individually in small cages (26×20×14 cm), in which twenty marbles had been equally distributed on top of mouse bedding (5-cm deep), and a wire lid was placed on top of the cage. Mice were left undisturbed for 15 min, after which time the number of buried marbles (i.e., those covered by bedding three-quarters or more) was counted.

The nature of data set [4]: Forced swim test (rats). It is filed as in vivo, rat. Conditions: three doses, 5 min test, vehicle 81 s. On the procedure: Forced Swim Test (FST; Rats) The FST in rats was conducted as previously described (Porsolt et al., 2001). On day 1, rats were placed in a cylindrical chamber (20 cm in diameter, 46 cm deep) filled to a height of 38 cm with room temperature water for 15 min. After the completion of this pre-exposure test, animals were removed from the apparatus, dried with towels and placed under a heat lamp for ˜30 min. […] Animals were treated with these same doses again 20 h and 23 h after the initial dose. Twenty-four h after the pre-exposure, animals were re-introduced to the apparatus and video-recorded for 5 min. Immobility was hand-scored for each video record by a treatment blind observer (P.A.F.) using ANYmaze (Stoelting) to record the data.

The nature of data set [5]: Eyelid ptosis assessment (rats). Particulars: 5 mg/kg. The data set is classed as in vivo, rat. On the procedure: Ptosis was assessed as previously described (Rubin et al., 1957). Each animal was photographed while gently restrained by hand. Photographs were analyzed by a treatment blind observer (P.A.F.) and assigned a score of 0 (no ptosis, eye completely open), 1 (mild, eye partially closed), 2 (moderate, eye half closed), 3 (severe, eye […] closed), or 4 (complete, eye completely closed).

As a reminder, the IC50 is the concentration that gives 50% inhibition. High values mean lower potency, low ones higher potency.

Counter-ions that a name gives are not always drawn.

T1 sequence (P32297 32-505): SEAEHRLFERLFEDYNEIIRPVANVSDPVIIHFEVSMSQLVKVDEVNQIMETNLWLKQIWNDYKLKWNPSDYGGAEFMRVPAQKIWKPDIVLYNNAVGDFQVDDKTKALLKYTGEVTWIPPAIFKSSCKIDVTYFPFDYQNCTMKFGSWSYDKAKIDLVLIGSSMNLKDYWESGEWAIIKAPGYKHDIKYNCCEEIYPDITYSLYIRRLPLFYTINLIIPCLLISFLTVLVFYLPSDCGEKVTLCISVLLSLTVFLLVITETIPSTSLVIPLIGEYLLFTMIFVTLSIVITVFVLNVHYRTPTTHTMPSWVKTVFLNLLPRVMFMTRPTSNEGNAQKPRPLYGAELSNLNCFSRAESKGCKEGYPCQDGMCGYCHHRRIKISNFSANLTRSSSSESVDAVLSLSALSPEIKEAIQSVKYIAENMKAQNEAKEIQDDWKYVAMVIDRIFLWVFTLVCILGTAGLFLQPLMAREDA
T1 sequence (P30926 22-498): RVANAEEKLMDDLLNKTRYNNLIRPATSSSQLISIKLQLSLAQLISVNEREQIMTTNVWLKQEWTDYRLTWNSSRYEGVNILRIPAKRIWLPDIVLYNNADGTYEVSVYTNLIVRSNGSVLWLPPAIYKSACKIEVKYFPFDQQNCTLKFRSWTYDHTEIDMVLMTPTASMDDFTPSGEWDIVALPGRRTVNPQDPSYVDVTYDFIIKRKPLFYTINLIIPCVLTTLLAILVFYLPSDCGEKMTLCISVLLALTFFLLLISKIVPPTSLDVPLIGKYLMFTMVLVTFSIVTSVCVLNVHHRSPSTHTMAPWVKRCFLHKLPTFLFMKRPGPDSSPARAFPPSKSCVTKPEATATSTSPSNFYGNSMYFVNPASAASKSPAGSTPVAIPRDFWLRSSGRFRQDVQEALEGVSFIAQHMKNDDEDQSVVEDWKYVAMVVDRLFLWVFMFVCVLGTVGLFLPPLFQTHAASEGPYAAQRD

For `CC=C1N(C)C(C)CC1(c1ccccc1)c1ccccc1` (single isomer, unassigned; (+)) [(+)-EDDP, 2-ethylidene-1,5,dimethyl-3,3-diphenylpyrrolidine perchlorate], the IC50 turned out to be 900 ± 90 nM in data set [1] and 1800 ± 600 nM in data set [2].

For `CCC1=NC(C)CC1(c1ccccc1)c1ccccc1` (single isomer, unassigned; (+)) [(+)-EMDP, 2-ethyl-5-methyl-3,3-diphenyl-1-pyrroline hydrochloride], the values for the 50% inhibitory concentration (IC50) in data set [1] and in data set [2] were 7400 ± 2100 nM and 24000 ± 5000 nM, respectively.

Consider `CC=C1N(C)C(C)CC1(c1ccccc1)c1ccccc1` (single isomer, unassigned; (-)) [(−)-EDDP, 2-ethylidene-1,5,dimethyl-3,3-diphenylpyrrolidine perchlorate], for which the IC50 was 700 ± 60 nM in data set [1] and 1400 ± 200 nM in data set [2].

With `CCC1=NC(C)CC1(c1ccccc1)c1ccccc1` (single isomer, unassigned; (-)) [(−)-EMDP, 2-ethyl-5-methyl-3,3-diphenyl-1-pyrroline hydrochloride], the IC50 in data set [1] turned out to be 7000 ± 1200 nM; in data set [2], 19000 ± 4000 nM.

`CNC1=Nc2ccc(Cl)cc2C(c2ccccc2)=[N+]([O-])C1` [CDP, chlordiazepoxide HCl, reference compound]: the “number of marbles buried vs vehicle” value in data set [3] is on record as “buried significantly fewer marbles”.

For the compound `CNC1(C)C2CCC(C2)C1(C)C` (stereo not drawn) [Mecamylamine, Mecamylamine HCl], the “immobile time in forced swim test vs vehicle” value in data set [4] (5 mg/kg s.c.) is “reduced immobile time”. Further, in data set [5], the “eyelid ptosis quantified over 3 h” value is on record as “produced ptosis in a time-dependent manner”, the “onset of ptosis after injection” value was no more than 15 min and the “ptosis observed during forced swim tests” value is on record as “obvious ptosis”. In data set [2], this compound registered an IC50 of 1000 ± 300 nM.

As for `CN[C@H]1CC[C@@H](c2ccc(Cl)c(Cl)c2)c2ccccc21` [sertraline, sertraline HCl, reference compound], the “immobile time in forced swim test vs vehicle” value in data set [4] (20 mg/kg s.c.) was “significantly reduced immobile time”.
